We go through 15 molecules from patent US20130040893A1, “TREATMENT OF PROLIFERATIVE DISORDERS” (TETRALOGIC PHARMACEUTICALS CORPORATION, priority 2005, published 2013).

The structures appear in SMILES notation. Residues, ends and D or L forms follow the SMILES beside them.

One assay has as its target BIR-3 domain of cIAP-1 (Homo sapiens, UniProt Q13490). In words: Fluorescence polarization binding assay, cIAP-1 BIR-3 domain.
The next assay concerns SK-OV-3 cells. In words: MTT cell growth assay in SK-OV-3 ovarian cancer cells. The following applies: Homo sapiens; SK-OV-3 cells, 72 hrs; read-out: MTT EC50. It is filed as cell-based. The protocol:
The MTT assay is an example of an assay that has been used for measuring cell growth as previously described (Hansen, M. B., Nielsen, S. E., and Berg, K. (1989) J. Immunol. Methods 119, 203-210) and incorporated herein by reference in its entirety. Briefly, SK-OV-3 cells were seeded in 96-well plates in McCoy's medium containing 10% fetal bovine serum […] (10,000 per well) and incubated overnight at 37° C.
μM) and the plates were incubated at 37° C. for an additional 72 hrs. This incubation time was optimal for measuring inhibitory effects of different analogs. 50 microliters of 5 mg/mL MTT reagent to each well was added and the plates were incubated at 37° C. for 3 hours. At the end of incubation period, 50 microliters of DMSO was added to each well to dissolve cells and the optical density (OD) of the wells was measured with a microplate reader (Victor^2 1420, Wallac, Finland) at 535 nm. Cell survival (CS) was calculated by the following equation:
CS=(OD treated well/mean OD control wells)×100%.
The EC50 (Table 1), defined as the drug concentration that results in 50% CS, was derived by calculating the point where the dose-response curve crosses the 50% CS point using GraphPad Prism.

Another assay deals with BIR-3 domain of XIAP (Homo sapiens, UniProt P98170). In words: Fluorescence polarization binding assay, XIAP BIR-3 domain.
Sequence of BIR-3 domain of XIAP (P98170 241-356 limits assumed): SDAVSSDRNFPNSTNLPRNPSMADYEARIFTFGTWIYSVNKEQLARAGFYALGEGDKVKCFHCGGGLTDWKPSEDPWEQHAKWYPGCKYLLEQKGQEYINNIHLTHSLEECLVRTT

Sequence of BIR-3 domain of cIAP-1 (Q13490 266-352 limits assumed): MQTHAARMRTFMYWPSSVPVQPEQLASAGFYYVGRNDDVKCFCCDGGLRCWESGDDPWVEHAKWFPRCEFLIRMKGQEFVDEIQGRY
Description for BIR-3 domain of XIAP: (§1) IC50 values (Table I) were determined from the plot using nonlinear least-squares analysis using GraphPad Prism.
(§2) We have utilized the specificity of this IAP binding motif in a fluorescence polarization assay to measure the binding affinities for cIAP-1 Antagonists. The fluorescence polarization assay consists of FP peptide {Sri: What is “FP Peptide”?}, and the recombinant BIR3 domain of the XIAP protein. The FP peptide and mimics of cIAP-1 N-terminus compete for binding to the BIR3 protein. […] If a peptide, peptidomimetic, or other small molecule being tested is a competitor, then it succeeds in displacing the FP peptide, resulting in a low mP value. Molecules that compete with the FP peptide can be titrated and IC50 values determined (GraphPad Prism nonlinear regression curve-fitting program) by plotting mp value as the direct measure of fraction bound vs. the log of the compound concentration.
Description for BIR-3 domain of cIAP-1: as §1, §2

In turn, `CC(C)[C@H](NC(=O)[C@H](C)N)C(=O)N1CCC[C@H]1C(=O)N[C@@H](Cc1ccccc1)C(=O)O` [AVPF, reference compound] (H-AVPF-OH) gave a half-inhibitory concentration (IC50) at BIR-3 domain of cIAP-1 of 10 to 100 nM.
On to `CCC(C)[C@H](NC(=O)[C@H](C)NC)C(=O)N1CCC[C@H]1Cc1c2n(c3ccc(F)cc13)CCn1c-2c(C[C@@H]2CCCN2C(=O)[C@@H](NC(=O)[C@H](C)NC)C(C)CC)c2cc(F)ccc21` (stereo partly drawn) [A], for which the values for the half-inhibitory concentration (IC50) on BIR-3 domain of cIAP-1 and on BIR-3 domain of XIAP were below 10 nM and 10 to 100 nM, respectively. The concentration giving a half-maximal response (EC50) with SK-OV-3 cells was below 10 nM.
Turning to `CN[C@@H](C)C(=O)N[C@H](C(=O)N1CCC[C@H]1Cc1c[nH]c2ccc(C)cc12)[C@@H](C)O` [C], the IC50 on BIR-3 domain of cIAP-1 is below 10 nM; at BIR-3 domain of XIAP, above 100 nM. In the assay with SK-OV-3 cells, the concentration for a half-maximal effect (EC50) was below 10 nM.
With `CN[C@@H](C)C(=O)N[C@H](C(=O)N1C[C@@H](OC(C)=O)C[C@H]1Cc1c[nH]c2ccccc12)[C@@H](C)O` [D], the IC50 at BIR-3 domain of cIAP-1 and at BIR-3 domain of XIAP was above 1000 nM throughout.
Take `CN[C@@H](C)C(=O)N[C@H](C(=O)N1C[C@@H](OC(C)=O)C[C@H]1Cc1c[nH]c2ccccc12)C(C)(C)C` [E]: the IC50 on BIR-3 domain of cIAP-1 was below 10 nM; at BIR-3 domain of XIAP, above 100 nM. The concentration giving a half-maximal response (EC50) in the assay on SK-OV-3 cells lay within 10 to 100 nM.
Taken in the same sequence, the figures for `CN[C@@H](C)C(=O)N[C@H](C(=O)N1C[C@@H](OC(C)=O)C[C@H]1Cc1c[nH]c2ccccc12)C(C)C` [F] were below 10 nM, 10 to 100 nM and 10 to 100 nM.
Taken in the same sequence, the figures for `CN[C@@H](C)C(=O)N[C@H](C(=O)N1CCC[C@H]1Cc1c[nH]c2ccc(C)cc12)C(C)C` [G] were below 10 nM, 10 to 100 nM and 10 to 100 nM.
As for `CC(C)[C@H](NC(=O)[C@H](C)N)C(=O)N1CCC[C@H]1Cc1c(-c2ccc(-c3oc4ccccc4c3C[C@@H]3CCCN3C(=O)[C@@H](NC(=O)[C@H](C)N)C(C)C)cc2)[nH]c2ccccc12` [J], the IC50 at BIR-3 domain of cIAP-1 and at BIR-3 domain of XIAP was above 100 nM throughout. For the same molecule, the EC50 in the assay on SK-OV-3 cells was above 100 nM.
`CN[C@@H](C)C(=O)N[C@H](C(=O)N1CCC[C@H]1Cc1cn(CCOCCn2cc(C[C@@H]3CCCN3C(=O)[C@@H](NC(=O)[C@H](C)NC)C3CCCCC3)c3ccccc32)c2ccccc12)C1CCCCC1` [K]: the half-inhibitory concentration (IC50) was 10 to 100 nM at BIR-3 domain of cIAP-1 and above 100 nM at BIR-3 domain of XIAP. In addition, in the assay on SK-OV-3 cells, the concentration for a half-maximal effect (EC50) was in the range of 10 to 100 nM.
For the molecule `CC(C)[C@@H](NC(=O)[C@@H](C)N)C(=O)N1CCC[C@@H]1Cc1c(-c2ccc(-c3oc4ccccc4c3C[C@H]3CCCN3C(=O)[C@H](NC(=O)[C@@H](C)N)C(C)C)cc2)[nH]c2ccccc12` [L], the IC50 on BIR-3 domain of cIAP-1 was 10 to 100 nM; on BIR-3 domain of XIAP, above 100 nM. Moreover, the EC50 in the assay with SK-OV-3 cells was below 10 nM.
For `CN[C@@H](C)C(=O)N[C@H](C(=O)N1C[C@@H](O)C[C@H]1Cc1c(-c2ccc(-c3[nH]c4ccccc4c3C[C@@H]3C[C@H](O)CN3C(=O)[C@@H](NC(=O)[C@H](C)NC)C(C)(C)C)cc2)[nH]c2ccccc12)C(C)(C)C` [M] the same measures were 10 to 100 nM, 10 to 100 nM and 10 to 100 nM.
Taken in the same sequence, the figures for `CN[C@@H](C)C(=O)N[C@H](C(=O)N1CCC[C@H]1Cc1c(-c2ccc(-c3c(C[C@@H]4CCCN4C(=O)[C@@H](NC(=O)[C@H](C)NC)C(C)(C)C)c4ccc(F)cc4n3CCO)cc2)n(CCO)c2cc(F)ccc12)C(C)(C)C` [N] were 10 to 100 nM, 10 to 100 nM and below 10 nM.
For `CN[C@@H](C)C(=O)N[C@H](C(=O)N1CCC[C@H]1Cc1c(-c2ccc(-c3c(C[C@@H]4CCCN4C(=O)[C@@H](NC(=O)[C@H](C)NC)C(C)C)c4ccc(F)cc4n3CCOC(C)=O)cc2)n(CCOC(C)=O)c2cc(F)ccc12)C(C)C` [O], the IC50 at BIR-3 domain of cIAP-1 and at BIR-3 domain of XIAP was above 1000 nM throughout. Besides, the EC50 in the assay with SK-OV-3 cells was above 1000 nM.
With `CN[C@@H](C)C(=O)N[C@H](C(=O)N1CCC[C@H]1Cc1c(-c2ccc(C(=O)OC)cc2)n(CCOCCOCCOC)c2cc(F)ccc12)C(C)(C)C` [P], the IC50 on BIR-3 domain of cIAP-1 and on BIR-3 domain of XIAP was 10 to 100 nM in each case. For the same molecule, the concentration for a half-maximal effect (EC50) in the assay with SK-OV-3 cells was below 10 nM.
Regarding `CN[C@@H](C)C(=O)N[C@H](C(=O)N1CCC[C@H]1Cc1c(-c2ccc(N3CCOCC3)cc2)n(CCOCCOCCOC)c2cc(F)ccc12)C(C)(C)C` [R], the half-inhibitory concentration (IC50) at BIR-3 domain of cIAP-1 and at BIR-3 domain of XIAP was 10 to 100 nM in each case. The EC50 in the assay with SK-OV-3 cells lay within 10 to 100 nM.
